Reference: PMC3486420, “In Vitro and In Vivo Characterizations of Chiglitazar, a Newly Identified PPAR Pan-Agonist” (PPAR Research, 2012)

Assays:
[1] = molecular target: T1, PPARα (Homo sapiens, UniProt Q07869); assay: PPARα transactivation reporter gene assay in SMMC-7721 cells; format: cell-based
T1 sequence (Q07869 1-468): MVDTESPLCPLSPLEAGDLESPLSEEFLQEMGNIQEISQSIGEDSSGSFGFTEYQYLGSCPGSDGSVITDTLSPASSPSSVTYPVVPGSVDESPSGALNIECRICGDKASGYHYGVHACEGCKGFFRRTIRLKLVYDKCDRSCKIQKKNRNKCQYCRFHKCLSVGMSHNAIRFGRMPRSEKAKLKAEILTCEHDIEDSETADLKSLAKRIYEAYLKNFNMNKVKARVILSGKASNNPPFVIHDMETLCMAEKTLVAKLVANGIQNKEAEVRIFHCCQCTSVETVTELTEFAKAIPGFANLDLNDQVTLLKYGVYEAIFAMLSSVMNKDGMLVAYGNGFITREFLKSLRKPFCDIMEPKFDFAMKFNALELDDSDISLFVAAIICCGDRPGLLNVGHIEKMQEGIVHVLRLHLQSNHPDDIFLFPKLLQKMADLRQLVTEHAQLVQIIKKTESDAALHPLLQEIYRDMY
T1 sequence (P19793 1-462 partner): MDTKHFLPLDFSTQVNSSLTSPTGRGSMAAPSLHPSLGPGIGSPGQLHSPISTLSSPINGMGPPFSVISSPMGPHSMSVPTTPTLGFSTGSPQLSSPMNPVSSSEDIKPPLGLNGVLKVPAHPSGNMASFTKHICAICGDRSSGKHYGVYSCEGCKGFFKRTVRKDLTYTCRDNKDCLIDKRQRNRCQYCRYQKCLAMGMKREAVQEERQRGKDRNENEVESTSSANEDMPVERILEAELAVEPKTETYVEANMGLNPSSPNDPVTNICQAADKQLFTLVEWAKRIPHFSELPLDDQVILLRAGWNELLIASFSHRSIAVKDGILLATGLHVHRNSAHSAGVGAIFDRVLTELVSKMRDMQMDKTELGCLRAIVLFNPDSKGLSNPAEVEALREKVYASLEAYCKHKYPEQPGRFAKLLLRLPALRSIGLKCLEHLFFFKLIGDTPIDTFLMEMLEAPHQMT

[2] = tested on: C2C12 cells; assay: Gene expression by RT-PCR in C2C12 cells; format: cell-based, mouse; details: 48 h, 10 μM chiglitazar, 50 μM WY14643, 5 μM 2-Bro, compared with rosiglitazone 10 μM
Description: (§1) cDNAs for human retinoid X receptor (hRXR), PPARα, PPARγ, and PPARδ were obtained by reverse transcriptase polymerase chain reaction (RT-PCR) from human liver or adipose tissues. Amplified cDNAs were cloned into pcDNA3.1 expression vector (Invitrogen, Carlsbad, CA, USA). The integrity and fidelity of all constructs made were verified by DNA sequencing. Luciferase reporter plasmids, ACOX promoter for PPARγ and pHD(X3)-luc for PPARα, were kind gifts of Drs. TM McIntyre (University of Utah, USA) and RA Rachubinski (University of Alberta, Canada), respectively. PPRE-luc for PPARδ was constructed based on the previous report by insertion of the annealed oligonucleotides having four copies of the CYP4A6 PPRE (4 × […]) into the upstream of the luciferase coding sequence in pGL3-promoter vector (Promega, Madison, WI, USA). pCMVβGal was purchased from Clontech (Palo Alto, CA, USA). The mouse 3T3-L1 preadipocyte cell line, skeletal muscle C2C12 cell line, and macrophage RAW267.4 cell line and the human osteosarcoma U2OS cell line were obtained from the American Type Culture Collection (ATCC, Rockville, MD, USA). The human hepatoma SMMC-7721 cell line was obtained from the Cell Culture Center of Chinese Academy of Medical Sciences (Beijing, China). Cell lines were cultured in medium of DMEM (3T3-L1, C2C12, and SMMC-7721), RPMI 1640 (RAW267.4), or McCoy's 5A (U2OS), containing 10% fetal bovine serum (FBS), 50 μg/mL streptomycin, and 50 units/mL penicillin at 37°C in a humidified incubator with 5% CO2.
Total RNA was extracted from cells or tissues with an RNeasy minikit (Qiagen, Valencia, CA, USA). The first-strand cDNA was synthesized using the oligo(dT) primers, followed by using SuperScript II reverse transcriptase (Invitrogen) according to the manufacturer's instructions. […] PCR products were analyzed by electrophoresis on a 1.5% agarose gel stained with ethidium bromide. […]

[3] = molecular target: T1, PPARα; assay: PPARα transactivation reporter gene assay in U2OS cells; format: cell-based
[4] = tested on: RAW267.4 cells; assay: Gene expression by RT-PCR in RAW267.4 cells; format: cell-based, mouse; details: 48 h, 10 μM chiglitazar; for Expression of PPARα and/or PPARδ downstream gene SRA: 50 μM WY14643, 5 μM 2-Bro, compared with rosiglitazone 10 μM
Description: as §1
(§2) Total RNA was extracted from cells or tissues with an RNeasy minikit (Qiagen, Valencia, CA, USA). The first-strand cDNA was synthesized using the oligo(dT) primers, followed by using SuperScript II reverse transcriptase (Invitrogen) according to the manufacturer's instructions. The PCR amplifications were performed in 10 μL of reaction mixture volume containing 0.8 μL of cDNA, 10 mM Tris-HCl (pH 8.3), 50 mM KCl, 1.5 mM MgCl2, 0.1% Triton X-100, 0.2 mM deoxynucleotide triphosphates, 0.4 μM primers, and 0.25 U of Taq polymerase (TaKaRa Biotechnology Co., Ltd, China). Taq DNA polymerase was added to each tube after a treatment of 2 min at 94°C. This was followed by 22–30 cycles of denaturation (23 s at 94°C), annealing (20 s at 55°C), extension (30 s at 72°C), and a final extension step of 2 min. PCR products were analyzed by electrophoresis on a 1.5% agarose gel stained with ethidium bromide.
(§3) Figure 1 In vitro regulation of gene expression by chiglitazar. (a) Endogenous expression of individual PPAR subtypes in cell lines. […]. The expression change of referred genes induced by different compounds was normalized against internal control (36B4 or GAPDH) and then compared with vehicle control treatment. The data shown are averaged from 3 independent experiments.

[5] = tested on: SMMC-7721 cells; assay: Gene expression by RT-PCR in SMMC-7721 cells; format: cell-based, human; details: 48 h, 10 μM rosiglitazone, 10 μM chiglitazar; for Expression of LDL receptor (LDLR): 50 μM WY14643, 5 μM 2-Bro
Description: as §1, §2, §3

[6] = tested on: rats; parameters: method as in earlier work; details: same length of treatment (6 months) ref 44, 45; cited from earlier work
[7] = molecular target: T2, PPARδ (Homo sapiens, UniProt Q03181); assay: PPARδ transactivation reporter gene assay in SMMC-7721 cells; format: cell-based
T2 construct: expressed in transfected cells; host or cells: SMMC-7721 or U2OS
T2 sequence (Q03181 1-441): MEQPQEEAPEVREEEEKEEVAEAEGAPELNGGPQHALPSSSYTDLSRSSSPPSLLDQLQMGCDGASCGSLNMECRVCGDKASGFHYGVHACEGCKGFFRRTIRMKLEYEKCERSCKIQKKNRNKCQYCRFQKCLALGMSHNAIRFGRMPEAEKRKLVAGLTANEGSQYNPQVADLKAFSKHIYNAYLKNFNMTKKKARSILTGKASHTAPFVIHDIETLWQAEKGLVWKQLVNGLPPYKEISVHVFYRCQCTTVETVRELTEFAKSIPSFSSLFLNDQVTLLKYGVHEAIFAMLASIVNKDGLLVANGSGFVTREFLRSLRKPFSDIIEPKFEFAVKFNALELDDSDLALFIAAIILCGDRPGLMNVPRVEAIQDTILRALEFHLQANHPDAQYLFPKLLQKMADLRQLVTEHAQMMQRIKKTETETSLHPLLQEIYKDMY
T2 sequence (P19793 1-462 partner): T1 sequence (P19793 1-462 partner)

[8] = molecular target: T3, PPARγ (Homo sapiens, UniProt P37231); assay: PPARγ transactivation reporter gene assay in U2OS cells; format: cell-based; details: 24 h treatment, luciferase reporter, hRXR cotransfected, ia: inactive at 10 μM
T3 construct: expressed in transfected cells; host or cells: SMMC-7721 or U2OS
T3 sequence (P37231 1-505): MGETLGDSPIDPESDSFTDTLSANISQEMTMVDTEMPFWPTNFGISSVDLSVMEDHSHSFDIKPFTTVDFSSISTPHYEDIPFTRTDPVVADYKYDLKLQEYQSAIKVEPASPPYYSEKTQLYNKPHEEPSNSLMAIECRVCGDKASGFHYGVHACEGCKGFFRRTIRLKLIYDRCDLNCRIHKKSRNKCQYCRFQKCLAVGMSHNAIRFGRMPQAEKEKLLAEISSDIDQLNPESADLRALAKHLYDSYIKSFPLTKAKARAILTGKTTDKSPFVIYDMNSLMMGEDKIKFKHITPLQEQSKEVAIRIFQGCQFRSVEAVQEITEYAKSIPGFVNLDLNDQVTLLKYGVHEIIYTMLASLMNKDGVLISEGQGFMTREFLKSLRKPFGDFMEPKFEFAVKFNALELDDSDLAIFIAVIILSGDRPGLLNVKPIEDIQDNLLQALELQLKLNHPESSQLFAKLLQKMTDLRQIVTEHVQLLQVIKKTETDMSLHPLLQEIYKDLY
T3 sequence (P19793 1-462 partner): T1 sequence (P19793 1-462 partner)

[9] = molecular target: T3, PPARγ; assay: PPARγ transactivation reporter gene assay in SMMC-7721 cells; format: cell-based
[10] = molecular target: T2, PPARδ; assay: PPARδ transactivation reporter gene assay in U2OS cells; format: cell-based
[11] = tested on: 3T3-L1 cells; assay: Gene expression by RT-PCR in 3T3-L1 cells; format: cell-based, mouse; details: 48 h, 10 μM rosiglitazone, 10 μM chiglitazar, vs vehicle
Description: as §1, with “The human hepatoma SMMC-7721 cell line was obtained from the Cell Culture Center of Chinese Academy of Medical Sciences (Beijing, China). Cell lines were cultured in medium of DMEM (3T3-L1, C2C12, and SMMC-7721), RPMI 1640 (RAW267.4), or McCoy's 5A (U2OS), containing 10% fetal bovine serum (FBS), 50 μg/mL streptomycin, and 50 units/mL penicillin at 37°C in a humidified incubator with 5% CO2.” left out
Total RNA was extracted from cells or tissues with an RNeasy minikit (Qiagen, Valencia, CA, USA). […] PCR products were analyzed by electrophoresis on a 1.5% agarose gel stained with ethidium bromide. […]

[12] = tested on: KKAy mice; assay: Gene expression by RT-PCR in tissues of treated KKAy mice; format: in vivo, mouse; details: 12 days oral
Procedure: as §2
Male db/db mice (BKS.Cg-m +/+ LEPR^db) in 6-7 weeks were purchased from The Jackson Laboratory (Bar Harbor, ME, USA). Male KKAy and C57BL/6J mice in 8–10 weeks were obtained from the Institute of Animal Science, Chinese Academy of Medical Sciences and Peking Union Medical College (Beijing, China). Animals were randomly sorted into different treatment groups (8–10 per group). […]. Plasma glucose levels were examined at various time points by Accu-Chek Advantage II Glucose Strips (Roche Diagnostics, Basel, Switzerland) and measured by Accu-Chek Advantage (Roche Diagnostics). Animals were sacrificed 24 h after the last dosing and abdominal fat pad, liver, and skeletal muscle from KKAy mice and abdominal fat pad from db/db mice were taken for gene expression analysis.
Figure 3 In vivo regulation of gene expression by chiglitazar. […]. Equal amount of total RNA from each mouse in the same group was mixed and subjected to RT-PCR analysis for the indicated genes. […]. Total RNA was isolated from individual animal tissues and subjected to the RT-PCR analysis independently for the indicated genes.

[13] = max response compared with WY at 50 μM
[14] = 24 h treatment, luciferase reporter, hRXR cotransfected, ia: inactive at 10 μM
[15] = chiglitazar 20 mg kg^−1, rosiglitazone 5 mg kg^−1

Cc1cccc(Nc2cc(Cl)nc(SCC(=O)O)n2)c1C [WY, WY14643]
PPARα % Max [1, 13]: 100% | Expression of PPARα and/or PPARδ downstream genes CPT-1a and CPT-1b [2]: more significantly upregulated | PPARα % Max [3, 13]: 100% | Expression of PPARα and/or PPARδ downstream gene SRA [4]: more significantly upregulated | Expression of LDL receptor (LDLR) [5]: downregulated

CCc1ccc(CCOc2ccc(CC3SC(=O)NC3=O)cc2)nc1 (centres unmarked) [Pio, pioglitazone]
Dose observed to induce heart weight increase [6]: 4 mg/kg

CCCCCCCCCCCCCCC(Br)C(=O)O (centres unmarked) [2-Bro, 2-bromohexadecanoic acid, reference compound]
PPARα EC50 [1, 14]: ia^2 | EC50 [7]: 5.1 ± 0.9 µM | PPARδ % Max ([7]; SMMC-7721 cells, max response compared with 2-Bro at 10 μM): 100% | PPARγ EC50 [8]: ia | EC50 [9]: 5.5 ± 1.7 µM | PPARγ % Max ([9]; SMMC-7721 cells, max response compared with Ros at 1 μM): 14% | Expression of PPARα and/or PPARδ downstream genes CPT-1a and CPT-1b [2]: more significantly upregulated | PPARα EC50 [3, 14]: ia | Expression of PPARα and/or PPARδ downstream gene SRA [4]: more significantly upregulated | EC50 [10]: 9.2 ± 0.8 µM | PPARδ % Max ([10]; U2OS cells, max response compared with 2-Bro at 10 μM): 100% | Expression of LDL receptor (LDLR) [5]: significantly upregulated

CN(CCOc1ccc(CC2SC(=O)NC2=O)cc1)c1ccccn1 (centres unmarked) [Ros, rosiglitazone, reference compound]
Dose observed to induce heart weight increase [6]: 5 mg/kg | Expression of PPARγ downstream genes SREBP1 and adiponectin [11]: upregulated | Expression of PPARγ downstream gene CD36 ([4]; 10 μM rosiglitazone, vs vehicle): upregulated | Expression of PPARγ downstream genes AOX, LIPC and HSL ([5]; vs vehicle): upregulated | Expression of LDL receptor (LDLR) [5]: downregulated | Expression of ACADL, HSL, GLUT4 and PPARγ in liver and skeletal muscle [12, 15]: not affected | Expression of genes involved in PPARγ-mediated insulin sensitization in adipose tissue [12, 15]: almost identically up-regulated | Expression of Adiponectin and CD36 in liver and skeletal muscle ([12]; rosiglitazone 5 mg kg^−1 vs chiglitazar 20 mg kg^−1): more upregulated
